The values below come from ChEMBL document CHEMBL1201862, “PubChem BioAssay data set” (2004).

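Assay format: 96-well plates, 48-hour exposure. At the GI50, growth is halved.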 Active and inactive are the calls of the source. No stated cut-off is given here; in the data, active = GI50 up to about 1.1 µM and inactive = higher.

Among the test systems are BT-549; EKVX; HCC 2998; HCT-15; MDA-N; Malme-3M; NCI-H23; NCI-H522; NCI/ADR-RES; OVCAR-3; SK-MEL-2; SK-MEL-5; SR; SW-620; T47D; TK-10; U-251; HL-60; RXF 393.
What all share (experiment): growth of human tumour cells (NCI), 48 h

`CN1CC(c2ccccc2)=CC2=C1C=CC(=N)/C2=N\N`: the GI50 with BT-549 is 52.2 µM (inactive); in the assay with EKVX, > 100 µM (inactive); with HCC 2998, > 100 µM (inactive); with HCT-15, greater than 100 µM; in the assay on MDA-N it was > 100 µM (inactive); in the assay on Malme-3M, 42.3 µM (inactive). Moreover, the GI50 with NCI-H23 was > 100 µM (inactive); in the assay with NCI-H522 it was > 100 µM (inactive); with NCI/ADR-RES it was 47.1 µM (inactive); in the assay with OVCAR-3 it was > 100 µM (inactive); in the assay on SK-MEL-2, 48.2 µM (inactive); with SK-MEL-5, > 100 µM (inactive). The GI50 with SR, in the assay with SW-620, in the assay with T47D, in the assay on TK-10 and with U-251 was > 100 µM (inactive) in each case.
`O=C(O)CCCOc1cc(-c2ccccc2F)nc2cc3c(cc12)OCO3`: the GI50 in the assay on BT-549 is 29.8 µM (inactive); in the assay on EKVX, > 100 µM (inactive); with HCC 2998, 46.1 µM (inactive); with HCT-15, 27.9 µM; in the assay on MDA-N, 1.72 µM (inactive); with Malme-3M, 7.38 µM (inactive). Moreover, the GI50 in the assay with NCI-H23 is 44.9 µM (inactive); in the assay on NCI/ADR-RES it was 4.65 µM (inactive); in the assay with SK-MEL-2, 4.99 µM (inactive); with SR it was 3.93 µM (inactive); in the assay with SW-620, 6.07 µM (inactive); in the assay with T47D it was > 100 µM (inactive). Also, the figures for the GI50 with TK-10 and in the assay on U-251 were > 100 µM (inactive) and 5.46 µM (inactive), respectively.
Consider `OC(c1cc(-c2ccc(Cl)cc2)nc2ccccc12)C1CCCCN1` (stereo not drawn), for which the GI50 with BT-549 was 5.09 µM (inactive); in the assay on EKVX, 2.14 µM (inactive); in the assay on HCC 2998, 2.08 µM (inactive); in the assay on HCT-15, 2.46 µM; in the assay with HL-60, 2.39 µM (inactive); in the assay on MDA-N, 1.95 µM (inactive). The GI50 with Malme-3M is 0.873 µM (active); in the assay with NCI-H23, 2.15 µM (inactive); with NCI-H522, 1.27 µM (inactive); in the assay with NCI/ADR-RES it was 2.38 µM (inactive); in the assay with OVCAR-3, 2.07 µM (inactive); in the assay on RXF 393, 0.368 µM (active). Further, the GI50 in the assay on SK-MEL-2 was 2.03 µM (inactive); in the assay with SK-MEL-5 it was 2.24 µM (inactive); with SW-620, 1.88 µM (inactive); in the assay with T47D it was 1.77 µM (inactive); in the assay with TK-10, 4.32 µM (inactive); in the assay on U-251, 1.84 µM (inactive).
With `CCN(CC(=O)O)CC(=O)O`, the GI50 is > 100 µM (inactive) with BT-549; > 100 µM (inactive) in the assay on EKVX; > 100 µM (inactive) with HCC 2998; greater than 100 µM with HCT-15; > 100 µM (inactive) with MDA-N; > 100 µM (inactive) with Malme-3M. In addition, the GI50 in the assay on NCI-H23, in the assay with NCI-H522, with NCI/ADR-RES, in the assay with OVCAR-3, in the assay with RXF 393 and with SK-MEL-2 was > 100 µM (inactive) throughout. Also, the GI50 in the assay with SK-MEL-5, with SW-620, with T47D, in the assay with TK-10 and in the assay with U-251 was > 100 µM (inactive) each time.
Consider `C=C1C(=O)OC2/C=C(/CO)C3(O)CC(O)C(C)(CC(OC(=O)/C(C)=C/C)C12)O3` (stereo not drawn), for which the GI50 is 4.52 µM (inactive) with BT-549; 18.8 µM (inactive) in the assay with EKVX; 10.6 µM (inactive) in the assay on HCC 2998; 7.57 µM in the assay with HCT-15; 6.21 µM (inactive) with HL-60; 10.2 µM (inactive) in the assay on MDA-N. Moreover, the GI50 in the assay on Malme-3M is 10.2 µM (inactive); with NCI-H23 it was 13.6 µM (inactive); with NCI-H522, 2.4 µM (inactive); in the assay with OVCAR-3, 10.2 µM (inactive); with RXF 393, 2.81 µM (inactive); in the assay with SK-MEL-2 it was 22.4 µM (inactive). For the same compound, the GI50 is 11.1 µM (inactive) in the assay on SK-MEL-5; 4.57 µM (inactive) in the assay with SR; 3.33 µM (inactive) with SW-620; 10.9 µM (inactive) in the assay on T47D; 11.9 µM (inactive) with TK-10; 18.5 µM (inactive) with U-251.
Consider `Cc1ccc2c(=O)c(-c3nnsn3)c[nH]c2n1`, for which the GI50 in the assay on BT-549 was > 100 µM (inactive); in the assay on EKVX, > 100 µM (inactive); with HCT-15, greater than 100 µM; with HL-60, > 100 µM (inactive); in the assay on MDA-N it was > 100 µM (inactive); with Malme-3M it was > 100 µM (inactive). The GI50 in the assay with NCI-H23, in the assay with NCI-H522, with NCI/ADR-RES, in the assay with OVCAR-3, in the assay on RXF 393 and in the assay on SK-MEL-2 was > 100 µM (inactive) throughout. The GI50 in the assay on SK-MEL-5, in the assay with SW-620, with T47D, in the assay with TK-10 and in the assay on U-251 was > 100 µM (inactive) in each case.
Take `Cc1n[n+](CC(=O)c2ccccc2)c2sc(N)nn12`: the GI50 in the assay with BT-549 was > 100 µM (inactive); in the assay with EKVX, > 100 µM (inactive); in the assay with HCT-15, greater than 100 µM; with MDA-N, > 100 µM (inactive); in the assay with Malme-3M, > 100 µM (inactive); with NCI-H23 it was > 100 µM (inactive). Moreover, the GI50 in the assay with NCI-H522 was > 100 µM (inactive); with NCI/ADR-RES it was > 100 µM (inactive); with OVCAR-3, > 100 µM (inactive); with RXF 393, > 100 µM (inactive); with SK-MEL-2 it was > 100 µM (inactive); in the assay on SK-MEL-5 it was 72.3 µM (inactive). Moreover, the GI50 with SW-620, in the assay on T47D, in the assay on TK-10 and with U-251 was > 100 µM (inactive) each time.
For the compound `O=C1CCCCCCCCCCC1CN(Cc1ccccc1)Cc1ccccc1` (stereo not drawn), the GI50 was 50.7 µM (inactive) in the assay on BT-549; 36.1 µM (inactive) with EKVX; 28.8 µM (inactive) with HCC 2998; 56.5 µM in the assay with HCT-15; 23.9 µM (inactive) with HL-60; 40.1 µM (inactive) in the assay on MDA-N. Besides, the GI50 is 29.4 µM (inactive) in the assay with Malme-3M; 32.2 µM (inactive) with NCI-H23; 41.3 µM (inactive) in the assay with NCI-H522; 44.5 µM (inactive) in the assay with OVCAR-3; 15.4 µM (inactive) with RXF 393; 13.1 µM (inactive) in the assay on SK-MEL-5. For the same compound, the GI50 in the assay on SR was 35.5 µM (inactive); in the assay with SW-620 it was 45.6 µM (inactive); in the assay with T47D, 19.1 µM (inactive); in the assay on TK-10, > 100 µM (inactive); with U-251, 18.8 µM (inactive).
Regarding `COc1ccc(OCC(=N/NC(=O)c2ccncc2)/N=C/c2ccncc2)cc1`, the GI50 was > 100 µM (inactive) in the assay on BT-549; > 100 µM (inactive) with EKVX; > 100 µM (inactive) with HCC 2998; 51.5 µM in the assay with HCT-15; 57.9 µM (inactive) with HL-60; 17.6 µM (inactive) with MDA-N. Moreover, the GI50 in the assay on Malme-3M was > 100 µM (inactive); in the assay on NCI-H23 it was > 100 µM (inactive); in the assay with NCI-H522, 32.2 µM (inactive); in the assay on NCI/ADR-RES, 77.6 µM (inactive); in the assay on OVCAR-3 it was 48.6 µM (inactive); in the assay on RXF 393 it was 36.3 µM (inactive). Moreover, the GI50 with SK-MEL-2 is > 100 µM (inactive); in the assay on SW-620, 53.5 µM (inactive); in the assay with T47D, > 100 µM (inactive); in the assay with TK-10, > 100 µM (inactive); in the assay with U-251, > 100 µM (inactive).
As for `CCN(CC)CCSc1c(C(C)=O)c(=O)n(-c2ccccc2)c(=S)n1-c1ccccc1`, the GI50 with BT-549 was 15.5 µM (inactive); in the assay on EKVX it was 15.1 µM (inactive); in the assay with HCC 2998, 11.9 µM (inactive); in the assay on HCT-15, 2.8 µM; with HL-60, 2.52 µM (inactive); with MDA-N, 6.68 µM (inactive). Further, the GI50 is 6.1 µM (inactive) in the assay with Malme-3M; 14.7 µM (inactive) in the assay on NCI-H23; 2.21 µM (inactive) in the assay on NCI-H522; 22.2 µM (inactive) in the assay on NCI/ADR-RES; 2.81 µM (inactive) in the assay on OVCAR-3; 1.9 µM (inactive) in the assay on RXF 393. Also, the GI50 in the assay on SK-MEL-2 is 15.5 µM (inactive); with SK-MEL-5, 13.8 µM (inactive); in the assay with SW-620, 2.25 µM (inactive); with T47D, 2.58 µM (inactive); in the assay with TK-10 it was 5.47 µM (inactive); with U-251, 17.7 µM (inactive).
As for `C[n+]1c2ccccc2c(C(=O)Nc2ccc(S(=O)(=O)Nc3ncccn3)cc2)c2ccccc21`, the GI50 is 45.1 µM (inactive) with BT-549; 80.7 µM (inactive) with EKVX; > 100 µM (inactive) in the assay with HCC 2998; greater than 100 µM in the assay with HCT-15; 47.4 µM (inactive) with MDA-N; > 100 µM (inactive) with Malme-3M. The GI50 in the assay with NCI-H23 was > 100 µM (inactive); in the assay with NCI/ADR-RES, 32.5 µM (inactive); in the assay on OVCAR-3, > 100 µM (inactive); with SK-MEL-2, > 100 µM (inactive); with SK-MEL-5 it was 58.9 µM (inactive); in the assay on SR, > 100 µM (inactive). Further, the GI50 in the assay with SW-620, in the assay on T47D, in the assay with TK-10 and in the assay on U-251 was > 100 µM (inactive) throughout.
As for `N=c1sc(N2CCOCC2)nn1CC(=O)c1ccccc1`, the GI50 in the assay on BT-549 was > 100 µM (inactive); with EKVX, > 100 µM (inactive); in the assay with HCC 2998 it was > 100 µM (inactive); in the assay on HCT-15 it was greater than 100 µM; with HL-60 it was > 100 µM (inactive); in the assay with MDA-N, > 100 µM (inactive). The GI50 in the assay with Malme-3M is > 100 µM (inactive); in the assay with NCI-H23 it was > 100 µM (inactive); in the assay with NCI-H522, > 100 µM (inactive); in the assay with NCI/ADR-RES it was > 100 µM (inactive); in the assay on OVCAR-3, 66.5 µM (inactive); in the assay on RXF 393, > 100 µM (inactive). Moreover, the GI50 was > 100 µM (inactive) in the assay on SK-MEL-2; > 100 µM (inactive) with SK-MEL-5; > 100 µM (inactive) in the assay on SW-620; 76.4 µM (inactive) in the assay with T47D; > 100 µM (inactive) in the assay with TK-10; > 100 µM (inactive) with U-251.
